Laboratory results reported in US6174907A, “Benzimidazole compounds containing 1,2,4-triazole ring, and compositions and methods of use containing the same” (Fuji Photo Film Co., Ltd., priority 1995, dated 2001).
Read-outs that look alike come from different tables or passages of the source.

Tests used:
[1] = tested on: mouse peritoneal macrophages; assay: Suppression of foaming of macrophages (cholesterol ester synthesis) in vitro; type: cell-based, mouse (female ICR); conditions: for activity at 5 µM: Mus musculus, Peritoneal macrophage, 16 hours, relative to control as 100%, smaller value = more potent suppression, read-out: Rate of CE synthesis (%)
Experimental: Activity of the compounds of the present invention for suppressing the foaming of macrophages
(§1) Activity of the compounds of the present invention for suppressing the foaming of macrophages, which triggers arterial sclerosis, was examined by an in vitro experiment using mouse peritoneal macrophages. 15-Week old female ICR mice (Nippon SLC) were subjected to bleeding by cutting off their cervicalis, and Hanks buffer (Nippon Seiyaku) was injected into their peritoneal cavities. After abdominal regions of the mice were massaged, the buffer was recovered immediately, and then the resulting buffer was centrifuged at 1,000 r.p.m. for five minutes to collect peritoneal macrophages. Then, the collected macrophages were suspended in GTI medium (Wako Pure Chemical Industries), and inoculated onto a 24-well microtiter plate. After the macrophages were cultivated at 37° C. under 5% CO2 for two hours, the culture medium was changed with Dulbecco Modified Eagle Medium (MEM, Nippon Seiyaku). The macrophages were further cultivated at 37° C. under 5% CO2 for 16 hours, and then a test compound and liposomes were added to the culture.
1) Test compound: dissolved in DMSO (Wako Pure Chemical Industries),
PC: Phosphatidylcholine (Funakoshi);
PS: Phosphatidylserine (Funakoshi);
DCP: Dicetylphosphate (Funakoshi);
CHOL: Cholesterol (Sigma)
(§2) After cultivation was further continued at 37° C. under 5% CO2 for 16 hours, lipid fraction was extracted with chloroform and methanol. The extracted lipid fraction was dissolved in isopropyl alcohol, and the produced cholesterol ester (CE) was quantified by an enzymatic luminescence method. Yield of the cholesterol ester was calculated as a relative ratio based on yield of the control as 100% where no test compound was added. Cytotoxicity was examined microscopically by observing morphological alteration of cells. In the tables, compound numbers correspond to those of the compounds of present invention described in the examples.

[2] = tested on: mouse peritoneal macrophages; assay: Cytotoxicity examined microscopically (morphological alteration of cells); type: cell-based, mouse (female ICR); conditions: 5 μM, observed microscopically
Experimental: as §1, §2

SMILES | activity at 5 µM ([1]; Table 4) [%] | Cytotoxicity ([2]; Table 4) | activity at 5 µM ([1]; Table 3) [%] | Cytotoxicity ([2]; Table 3) | Activity for suppressing the foaming of macrophages (in words) [1]
Cc1ccnc(SCCCCCSc2nc3ccccc3[nH]2)c1 [Compound B41] | 19 | Not observed | – | – | –
CCC(=O)Nc1ccc2[nH]c(SCCCCCSc3nc4ccccc4[nH]3)nc2c1 [Compound A8, 1-(2'-benzimidazolylthio)-5-(2"-(5"-propionylaminobenzimidazolyl)thio)pentane] | – | – | 24 | Not observed | –
c1ccc(-c2noc(SCCCCCSc3nc4ccccc4[nH]3)n2)cc1 [Compound B27] | 15 | Not observed | – | – | –
Clc1cc2nc(CCCCCSc3ccccn3)[nH]c2cc1Cl [Compound B44] | 51 | Not observed | – | – | –
CN(C)CCSc1nnc(SCCCCCSc2nc3ccccc3[nH]2)s1 [Compound B20] | 24 | Not observed | – | – | –
Cc1cc2nc(SCCCCCSc3nc4ccccc4[nH]3)[nH]c2cc1C [Compound A10, 1-(2'-(5',6'-dimethylbenzimidazolyl)thio)-5-(2"-benzimidazolylthio)pentane] | – | – | 20 | Not observed | –
Cc1cc2nc(SCCCCCSc3nc4cc(Cl)c(Cl)cc4[nH]3)[nH]c2cc1C [Compound A15, 1-(2'-(5',6'-dichlorobenzimidazolyl)thio)-5-(2"-(5",6"-dimethylbenzimidazolyl)thio)pentane] | – | – | 36 | Not observed | –
Cn1c(CCCCCSc2nc3ccccc3n2C)nc2ccccc21 [Compound A26, 1-methyl-2-(5-(2'-(1-methylbenzimidazolyl)thio)pentyl)benzimidazole] | – | – | 35 | Not observed | –
c1ccc2[nH]c(CCCCCCCCCCCSc3nc4ccccc4[nH]3)nc2c1 [Compound A32, 2-(11-(2'-benzimidazolylthio)undecyl)benzimidazole] | – | – | 62 | Not observed | –
CS(=O)(=O)Nc1ccc2[nH]c(SCCCCCSc3ccccn3)nc2c1 [Compound B38] | 22 | Not observed | – | – | –
c1ccc(-n2nnnc2SCCCCCSc2nc3ccccc3[nH]2)cc1 [Compound B12] | 14 | Not observed | – | – | –
CC1(C)COC(SCCCCCSc2nc3ccccc3[nH]2)=N1 [Compound B23] | 38 | Not observed | – | – | –
Cc1ccc2[nH]c(SCCCCCSc3nc4ccccc4s3)nc2c1 [Compound A36] | – | – | 21 | Not observed | –
Clc1cc2nc(SCCCCCCSc3nc4ccccc4[nH]3)[nH]c2cc1Cl [Compound A12, 1-(2'-(5',6'-dichlorobenzimidazolyl)thio)-6-(2"-benzimidazolylthio)hexane] | – | – | 42 | Not observed | –
c1cnc2c(SCCCCCSc3nc4ccccc4[nH]3)cccc2c1 [Compound B62] | 25 | Not observed | – | – | –
COc1ccc2[nH]c(SCCCCCSc3nc4ccccc4[nH]3)nc2c1 [Compound A5, 1-(2'-benzimidazolylthio)-5-(2"-(5"-methoxybenzimidazolyl)thio)pentane] | – | – | 39 | Not observed | –
Cc1cc2nc(SCCCCCSc3nc4ccccc4o3)[nH]c2cc1C [Compound A38] | – | – | 16 | Not observed | –
O=[N+]([O-])c1ccnc(SCCCCCSc2nc3ccccc3[nH]2)c1 [Compound B42] | 12 | Not observed | – | – | –
CSc1nnc(SCCCCCSc2nc3ccccc3[nH]2)s1 [Compound B19] | 21 | Not observed | – | – | –
CCC(=O)n1c(SCCCCCSc2nc3cc(S(=O)(=O)NC)ccc3n2C)nc2ccccc21 [Compound A25] | – | – | 32 | Not observed | –
c1ccc2[nH]c(SCCCCCSC3=NCCS3)nc2c1 [Compound B15] | 11 | Not observed | – | – | –
CCC(=O)n1c(CCCCCSc2nc3ccccc3n2C(=O)CC)nc2ccccc21 [Compound A24, 1-propionyl-2-(5-(2'-(1-propionylbenzimidazolyl)thio)pentyl)benzimidazole] | – | – | 40 | Not observed | –
c1ccc(-c2nc(SCSc3nc4ccccc4[nH]3)[nH]c2-c2ccccc2)cc1 [Control Compound, reference compound] | 102 | Not observed | – | – | did not exhibit activity for suppressing the foaming of macrophages

SMILES | activity at 5 µM ([1]; Table 4) [%] | Cytotoxicity ([2]; Table 4) | activity at 5 µM ([1]; Table 3) [%] | Cytotoxicity ([2]; Table 3) | Activity for suppressing the foaming of macrophages (in words) [1]
CCCCCCCCn1nnnc1SCCCCCSc1nc2ccccc2[nH]1 [Compound B11] | 18 | Not observed | – | – | –
c1ccc(-c2ccc3oc(SCCCCCSc4nc5ccccc5[nH]4)nc3c2)cc1 [Compound A39, 1-(2'-benzimidazolylthio)-5-(2"-(5"-phenylbenzoxazolyl)thio)pentane] | – | – | 24 | Not observed | –
Cc1nnc(SCCCCCSc2nc3ccccc3[nH]2)o1 [Compound B25] | 41 | Not observed | – | – | –
Cc1ccc2[nH]c(SCCCCCCCCSc3nc4ccccc4[nH]3)nc2c1 [Compound A20, 1-(2'-(5'-methylbenzimidazolyl)thio)-8-(2"-benzimidazolylthio)octane] | – | – | 61 | Not observed | –
c1ccc(-n2cnnc2SCCCCCSc2nc3ccccc3[nH]2)cc1 [Compound B7] | 21 | Not observed | – | – | –
Cn1c(=O)c2nc(SCCCCCSc3nc4ccccc4[nH]3)[nH]c2n(C)c1=O [Compound B13] | 26 | Not observed | – | – | –
CS(=O)(=O)Nc1ccc2[nH]c(SCCCCCSc3nc4ccccc4[nH]3)nc2c1 [Compound A7, 1-(2'-benzimidazolylthio)-5-(2"-(5"-methanesulfonylamino-benzimidazolyl)thio)pentane] | – | – | 22 | Not observed | –
CCC(=O)n1c(SCCCCCSc2ccccn2)nc2ccccc21 [Compound B65, 5-(2'-(1'-propionylbenzimidazolyl)thio)-1-(2"-pyridylthio)pentane] | 22 | Not observed | – | – | –
CCC(=O)Nc1ccc2[nH]c(SCCCCCSc3ccccn3)nc2c1 [Compound B37] | 20 | Not observed | – | – | –
c1ccc2[nH]c(SCCCCCSc3nnc[nH]3)nc2c1 [Compound B5] | 14 | Not observed | – | – | –
Cc1ccc2[nH]c(SCCCCCSc3ccccn3)nc2c1 [Compound B35] | 46 | Not observed | – | – | –
S=c1sc(SCCCCCSc2nc3ccccc3[nH]2)nn1-c1ccccc1 [Compound B22] | 21 | Not observed | – | – | –
Cc1cc(O)nc(SCCCCCSc2nc3ccccc3[nH]2)n1 [Compound B52] | 49 | Not observed | – | – | –
Cn1nnnc1SCCCCCSc1nc2ccccc2[nH]1 [Compound B10] | 32 | Not observed | – | – | –
c1ccc2[nH]c(CCCCCCCSc3nc4ccccc4[nH]3)nc2c1 [Compound A31, 2-(7-(2'-benzimidazolylthio)heptyl)benzimidazole] | – | – | 53 | Not observed | –
CCOC(=O)c1ccc2[nH]c(SCCCCCSc3nc4ccccc4[nH]3)nc2c1 [Compound A9, 1-(2'-(5'-ethoxycarbonylbenzimidazolyl)thio)-5-(2"-benzimidazolylthio)pentane] | – | – | 28 | Not observed | –
CC(=O)Nc1nnc(SCCCCCSc2nc3ccccc3[nH]2)s1 [Compound B17] | 18 | Not observed | – | – | –
Oc1ncnc2[nH]c(SCCCCCSc3nc4ccccc4[nH]3)nc12 [Compound B14] | 48 | Not observed | – | – | –
COc1ccc2[nH]c(SCCCCCSc3nc4cc(C)ccc4[nH]3)nc2c1 [Compound A4, 1-(2'-(5'-methoxybenzimidazolyl)thio)-5-(2"-(5"-methylbenzimidazolyl)thio)pentane] | – | – | 41 | Not observed | –
COc1ccc2[nH]c(SCCCCCSc3ccccn3)nc2c1 [Compound B34] | 37 | Not observed | – | – | –
Cc1nnc(SCCCCCSc2nc3ccccc3[nH]2)n1C [Compound B8] | 24 | Not observed | – | – | –
Cc1cc2nc(SCCCCCSc3ccccn3)[nH]c2cc1C [Compound B33] | 18 | Not observed | – | – | –
CSc1nc(C)cc(SCCCCCSc2nc3ccccc3[nH]2)n1 [Compound B56] | 18 | Not observed | – | – | –
